Measurements taken from US9193695B2, “1, 2, 4-triazolone derivative and use thereof as an antagonist on the arginine-vasopressin 1B receptor” (TAISHO PHARMACEUTICAL CO., LTD., priority 2010, dated 2015).

Legend:
[1] = biological target: T1, Human V1b receptor (Homo sapiens, UniProt P47901); assay: Binding test for V1b receptor ([3H]AVP displacement, crude membrane preparation); design: expressed in transfected cells; host or cells: 293FT cells (Invitrogen), transient expression; crude membrane preparation; conditions: [3H]AVP 0.4 to 1 nmol/L; membranes of 293FT cells transiently expressing human V1b receptor; room temperature, 60 minutes
T1 sequence (P47901 1-424): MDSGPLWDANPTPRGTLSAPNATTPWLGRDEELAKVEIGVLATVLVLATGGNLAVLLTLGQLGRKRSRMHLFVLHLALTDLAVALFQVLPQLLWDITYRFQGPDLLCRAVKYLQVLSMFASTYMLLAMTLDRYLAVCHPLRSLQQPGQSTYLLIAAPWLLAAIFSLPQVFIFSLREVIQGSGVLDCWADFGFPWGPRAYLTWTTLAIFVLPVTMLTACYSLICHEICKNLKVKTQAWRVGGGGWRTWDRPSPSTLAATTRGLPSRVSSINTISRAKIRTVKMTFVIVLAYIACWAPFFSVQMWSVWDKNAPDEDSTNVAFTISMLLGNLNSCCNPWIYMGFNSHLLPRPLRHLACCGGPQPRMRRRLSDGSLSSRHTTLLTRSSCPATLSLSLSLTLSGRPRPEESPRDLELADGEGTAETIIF
Outline: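 Crude membranes from 293FT cells transiently expressing human V1b, in 50 mmol/L Tris-HCl pH 7.4 with 10 mmol/L MgCl2 and 0.1% BSA, incubated with compound (0.01 nmol/L–1 μmol/L) and [3H]AVP (0.4–1 nmol/L) for 60 min at room temperature. Filter-bound radioactivity counted; 10 μmol/L unlabeled AVP defined 0%. IC50 from dose-response curve.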

[2] = biological target: T1, Human V1b receptor; assay: Measurement of V1b receptor antagonistic activity (AVP-induced fluorescence, Fluo-4, FDSS); assay type: cell-based; design: expressed in transfected cells
Procedure: Measurement of V1b Receptor Antagonistic Activity
CHO cells (ATCC) stably expressing human V1b receptor were cultured in Ham's F-12 medium (containing 10% FBS and 0.5 mg/mL Geneticin). The cells were seeded the day before the test at 20,000 cells/well in a 96-well poly-D-lysine coated black plate. On the day of the test, the culture medium was removed, and a loading solution (1×HBSS, 10 mmol/L HEPES, 0.1% bovine serum albumin, 1.25 mmol/L Probenecid, 0.02% Pluronic F-127, 1.5 μmol/L Fluo-4-AM, pH 7.4) was added to each well, followed by incubation in a CO2 incubator for 1 hour. After the incubation, the loading solution was removed. A test solution (1×HBSS, 10 mmol/L HEPES, 0.1% bovine serum albumin, 1.25 mmol/L Probenecid, pH 7.4) containing any one of test compounds was added to wells, followed by incubation in a CO2 incubator for 30 minutes. The test compound was serially diluted with DMSO so as to be assayed at a final concentration of 0.1 nmol/L to 1 μmol/L. After the incubation, measurement of fluorescence intensity levels and addition of AVP were performed with Functional Drug Screening System (FDSS, Hamamatsu Photonics K.K.). […] The fluorescence level in the well not containing any test compound and AVP was defined as 0%, and the fluorescence level in the well not containing any test compound but containing AVP was defined as 100%. A dose-response curve was plotted from fluorescence levels after the addition of AVP in the presence of a test compound at various concentrations, and the 50% inhibitory concentration (IC50 value) of the compound was calculated.

[3] = CHO cells stably expressing human V1b receptor, AVP 2.5 nmol/L, 30 minutes preincubation, read-out: IC50 value (V1b receptor antagonistic activity)

With `CC(C)NC(=O)Cn1c(-c2cccc(Cl)c2)nn(-c2ccc(CCN3CCOCC3)cc2)c1=O` [Aa-1, 2-[3-(3-Chlorophenyl)-1-{4-[2-(morpholin-4-yl)ethyl]phenyl}-5-oxo-1,5-dihydro-4H-1,2,4-triazol-4-yl]-N-(propan-2-yl)acetamide] the IC50 [1] was 8.6 nM and the IC50 [2, 3] was 9.3 nM.

Work on `CC(C)NC(=O)Cn1c(-c2cccc(Cl)c2)nn(-c2ccc(CCN3C4CCC3CC(O)C4)cc2)c1=O` (stereo not shown) [Aa-8, 2-[3-(3-Chlorophenyl)-1-{4-[2-(3-hydroxy-8-azabicyclo[3.2.1]oct-8-yl)ethyl]phenyl}-5-oxo-1,5-dihydro-4H-1,2,4-triazol-4-yl]-N-(propan-2-yl)acetamide] yielded an IC50 [1] of 4.1 nM and an IC50 [2, 3] of 23 nM.

Molecule `CC(C)NC(=O)Cn1c(-c2cccc(Cl)c2)nn(-c2ccc(CCN3C4CCC3COC4)cc2)c1=O` [Aa-10, 2-[3-(3-Chlorophenyl)-1-{4-[2-(3-oxa-8-azabicyclo[3.2.1]oct-8-yl)ethyl]phenyl}-5-oxo-1,5-dihydro-4H-1,2,4-triazol-4-yl]-N-(propan-2-yl)acetamide] has an IC50 [1] of 4.7 nM and an IC50 [2] of 20 nM.

In the case of `CC(C)NC(=O)Cn1c(-c2cccc(Cl)c2)nn(-c2ccc(CCN3CCOCC3)cn2)c1=O` [Ab-2, 2-[3-(3-Chlorophenyl)-1-{5-[2-(morpholin-4-yl)ethyl]pyridin-2-yl}-5-oxo-1,5-dihydro-4H-1,2,4-triazol-4-yl]-N-(propan-2-yl)acetamide], the IC50 [1] is reported as 41 nM and the IC50 [2, 3] is reported as 13 nM.

In the case of `CC(C)NC(=O)Cn1c(-c2cccc(Cl)c2)nn(-c2ccc(CCN3C4CCC3COC4)cn2)c1=O` [Ab-5, 2-[3-(3-Chlorophenyl)-1-{5-[2-(3-oxa-8-azabicyclo[3.2.1]oct-8-yl)ethyl]pyridin-2-yl}-5-oxo-1,5-dihydro-4H-1,2,4-triazol-4-yl]-N-(propan-2-yl)acetamide], the IC50 [1] is reported as 8.6 nM and the IC50 [2, 3] is reported as 29 nM.

Work on `COc1cccc(-c2nn(-c3ccc(CCN4CCOCC4)cc3)c(=O)n2CC(=O)NC(C)C)c1` [Ba-2, 2-[3-(3-Methoxyphenyl)-1-{4-[2-(morpholin-4-yl)ethyl]phenyl}-5-oxo-1,5-dihydro-4H-1,2,4-triazol-4-yl]-N-(propan-2-yl)acetamide] yielded an IC50 [1] of 19 nM and an IC50 [2, 3] of 30 nM.

Work on `COc1cc(-c2nn(-c3ccc(CCN4CCOCC4)cc3)c(=O)n2CC(=O)NC(C)C)ccc1F` [Ca-2, 2-[3-(4-Fluoro-3-methoxyphenyl)-1-{4-[2-(morpholin-4-yl)ethyl]phenyl}-5-oxo-1,5-dihydro-4H-1,2,4-triazol-4-yl]-N-(propan-2-yl)acetamide] yielded an IC50 [1] of 10 nM and an IC50 [2, 3] of 11 nM.

Work on `COc1cc(-c2nn(-c3ccc(CCN4C5CCC4CC(O)C5)cc3)c(=O)n2CC(=O)NC(C)C)ccc1F` (stereo not shown) [Ca-3, 2-[3-(4-Fluoro-3-methoxyphenyl)-1-{4-[2-(3-hydroxy-8-azabicyclo[3.2.1]oct-8-yl)ethyl]phenyl}-5-oxo-1,5-dihydro-4H-1,2,4-triazol-4-yl]-N-(propan-2-yl)acetamide] yielded an IC50 [1] of 6 nM and an IC50 [2, 3] of 16 nM.

`COc1cc(-c2nn(-c3ccc(CCN4CCOCC4)cn3)c(=O)n2CC(=O)NC(C)C)ccc1F` [Cb-2, 2-[3-(4-Fluoro-3-methoxyphenyl)-1-{5-[2-(morpholin-4-yl)ethyl]pyridin-2-yl}-5-oxo-1,5-dihydro-4H-1,2,4-triazol-4-yl]-N-(propan-2-yl)acetamide] was tested, and the IC50 [1] was 17 nM and the IC50 [2, 3] was 26 nM.

`CC(C)NC(=O)Cn1c(-c2ccc(F)c(Cl)c2)nn(-c2ccc(CCN3CCOCC3)cc2)c1=O` [Da-2, 2-[3-(3-Chloro-4-fluorophenyl)-1-{4-[2-(morpholin-4-yl)ethyl]phenyl}-5-oxo-1,5-dihydro-4H-1,2,4-triazol-4-yl]-N-(propan-2-yl)acetamide] showed an IC50 [1] of 4.3 nM and an IC50 [2, 3] of 6.3 nM.

Molecule `CC(C)NC(=O)Cn1c(-c2ccc(F)c(Cl)c2)nn(-c2ccc(CCN3C4CCC3COC4)cc2)c1=O` [Da-5, 2-[3-(3-Chloro-4-fluorophenyl)-1-{4-[2-(3-oxa-8-azabicyclo[3.2.1]oct-8-yl)ethyl]phenyl}-5-oxo-1,5-dihydro-4H-1,2,4-triazol-4-yl]-N-(propan-2-yl)acetamide] has an IC50 [1] of 2.5 nM and an IC50 [2, 3] of 6 nM.

For `CC(C)NC(=O)Cn1c(-c2ccc(F)c(Cl)c2)nn(-c2ccc(CCN3C4CCC3CC(O)C4)cc2)c1=O` (stereo not shown) [Da-6, 2-[3-(3-Chloro-4-fluorophenyl)-1-{4-[2-(3-hydroxy-8-azabicyclo[3.2.1]oct-8-yl)ethyl]phenyl}-5-oxo-1,5-dihydro-4H-1,2,4-triazol-4-yl]-N-(propan-2-yl)acetamide], the IC50 [1] was 4.4 nM and the IC50 [2] was 12 nM.

Molecule `CC(C)NC(=O)Cn1c(-c2ccccc2)nn(-c2ccc(CCN3CCOCC3)cc2)c1=O` [Ga-1, 2-(1-{4-[2-(Morpholin-4-yl)ethyl]phenyl}-5-oxo-3-phenyl-1,5-dihydro-4H-1,2,4-triazol-4-yl)-N-(propan-2-yl)acetamide] has an IC50 [1] of 114 nM.

`CC(C)NC(=O)Cn1c(-c2cccc(S(C)(=O)=O)c2)nn(-c2ccc(CCN3CCOCC3)cc2)c1=O` [Ia-1, 2-(3-[3-(Methylsulfonyl)phenyl]-1-{4-[2-(morpholin-4-yl)ethyl]phenyl}-5-oxo-1,5-dihydro-4H-1,2,4-triazol-4-yl)-N-(propan-2-yl)acetamide] was tested, and the IC50 [1] was 46 nM.

`COc1cccc(-c2nn(-c3ccc(CCN4CCOCC4)cc3)c(=O)n2CC(=O)NC(C)C)n1` [Ja-1, 2-[3-(6-Methoxypyridin-2-yl)-1-{4-[2-(morpholin-4-yl)ethyl]phenyl}-5-oxo-1,5-dihydro-4H-1,2,4-triazol-4-yl]-N-(propan-2-yl)acetamide] showed an IC50 [1] of 16 nM.

In the case of `COc1cccc(-c2nn(-c3ccc(CCN4C5CCC4COC5)cc3)c(=O)n2CC(=O)NC(C)C)n1` [Ja-2, 2-[3-(6-Methoxypyridin-2-yl)-1-{4-[2-(3-oxa-8-azabicyclo[3.2.1]oct-8-yl)ethyl]phenyl}-5-oxo-1,5-dihydro-4H-1,2,4-triazol-4-yl]-N-(propan-2-yl)acetamide], the IC50 [1] is reported as 20 nM.
